Literature values, collected in patent US6676959B1, “Nicotine-containing pharmaceutical compositions giving a rapid transmucosal absorption” (priority 1998, dated 2004).

Conditions: after starting smoking

CN1CCCC1c1cccnc1 (stereo not shown) [nicotine]
Time to peak blood levels of nicotine: 5 to 10 min
